How the values were obtained:
androgen receptor (AR) = target: T1, androgen receptor (AR) (Homo sapiens, UniProt P10275); assay: Binding activity on human nuclear receptor AR; conditions: mean ± SD, n = 4
T1 sequence (P10275 1-920): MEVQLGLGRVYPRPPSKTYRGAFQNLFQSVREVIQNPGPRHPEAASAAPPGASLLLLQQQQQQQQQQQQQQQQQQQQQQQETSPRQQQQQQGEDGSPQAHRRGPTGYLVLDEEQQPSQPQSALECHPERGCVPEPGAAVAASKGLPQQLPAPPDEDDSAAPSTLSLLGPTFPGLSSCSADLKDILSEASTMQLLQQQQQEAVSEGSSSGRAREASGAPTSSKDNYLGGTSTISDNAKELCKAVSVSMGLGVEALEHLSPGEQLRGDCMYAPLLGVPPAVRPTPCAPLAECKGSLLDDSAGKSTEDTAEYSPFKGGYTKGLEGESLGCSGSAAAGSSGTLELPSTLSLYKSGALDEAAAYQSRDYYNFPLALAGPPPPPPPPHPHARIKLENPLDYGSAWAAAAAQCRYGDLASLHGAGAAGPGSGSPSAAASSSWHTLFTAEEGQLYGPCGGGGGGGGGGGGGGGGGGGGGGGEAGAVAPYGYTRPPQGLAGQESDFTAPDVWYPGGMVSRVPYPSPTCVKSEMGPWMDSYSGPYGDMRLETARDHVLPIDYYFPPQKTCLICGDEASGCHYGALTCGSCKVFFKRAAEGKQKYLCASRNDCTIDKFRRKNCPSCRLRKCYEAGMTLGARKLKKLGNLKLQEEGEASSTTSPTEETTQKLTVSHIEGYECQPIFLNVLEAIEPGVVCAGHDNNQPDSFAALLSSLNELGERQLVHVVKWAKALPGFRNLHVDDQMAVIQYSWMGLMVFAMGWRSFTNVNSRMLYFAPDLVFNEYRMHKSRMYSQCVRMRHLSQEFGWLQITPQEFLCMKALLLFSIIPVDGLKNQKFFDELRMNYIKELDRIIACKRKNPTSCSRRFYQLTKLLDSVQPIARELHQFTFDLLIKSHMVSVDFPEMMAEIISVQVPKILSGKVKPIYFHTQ
Protocol: Buffer solution is composed of 25 mM NaPO4, 20 mM NaMoO4, 10 mM KF and 10% glycerol (pH=7.3) and stored under 4° C. Stock solution is prepared with CHAPS and DTT and stored under −20° C. […] Add 2.5 μl/hole into 96-pore plate. Take out appropriate amount of buffer solution reserve into solution to make the final concentration of CHAPS and DDT to become 0.25 mM and 2 mM respectively. Add protease inhibitors (aprotinin and leupeptin) to make its final concentration to become 1 μg/μl, and place in an ice bath. After adding human nuclear receptor GR (1:8), PR (1:100), ER (1:2000), AR (1:200) and MR (1:40) into the reaction system respectively, adequately mix suitable quantity of [^3H]-dexamethasone, [^3H]-progesterone, [^3H]-estradiol and [^3H]-DHT (from Amersham), rapidly add into 96-pore plate (100 μl/pore) and incubate overnight under 4° C. On the next day, add 25 μl of hydroxyapatite suspension into each pore and mix with shaking. After incubating for 10 min, separate by centrifuge for 3 min at 2500 rpm. The precipitate is washed with 100 μl of buffer solution and separated by centrifuge twice. Add 150 μl of scintillation solution (from Perkin Elmer) into each pore, mix with shaking and count by MicroBeta counter.

[1] = target: T2, human glucocorticoid receptor (GR) (Homo sapiens, UniProt P04150); assay: Binding activity on human nuclear receptor GR ([3H]-dexamethasone competition); conditions: mean ± SD, n = 4
T2 sequence (P04150 1-777): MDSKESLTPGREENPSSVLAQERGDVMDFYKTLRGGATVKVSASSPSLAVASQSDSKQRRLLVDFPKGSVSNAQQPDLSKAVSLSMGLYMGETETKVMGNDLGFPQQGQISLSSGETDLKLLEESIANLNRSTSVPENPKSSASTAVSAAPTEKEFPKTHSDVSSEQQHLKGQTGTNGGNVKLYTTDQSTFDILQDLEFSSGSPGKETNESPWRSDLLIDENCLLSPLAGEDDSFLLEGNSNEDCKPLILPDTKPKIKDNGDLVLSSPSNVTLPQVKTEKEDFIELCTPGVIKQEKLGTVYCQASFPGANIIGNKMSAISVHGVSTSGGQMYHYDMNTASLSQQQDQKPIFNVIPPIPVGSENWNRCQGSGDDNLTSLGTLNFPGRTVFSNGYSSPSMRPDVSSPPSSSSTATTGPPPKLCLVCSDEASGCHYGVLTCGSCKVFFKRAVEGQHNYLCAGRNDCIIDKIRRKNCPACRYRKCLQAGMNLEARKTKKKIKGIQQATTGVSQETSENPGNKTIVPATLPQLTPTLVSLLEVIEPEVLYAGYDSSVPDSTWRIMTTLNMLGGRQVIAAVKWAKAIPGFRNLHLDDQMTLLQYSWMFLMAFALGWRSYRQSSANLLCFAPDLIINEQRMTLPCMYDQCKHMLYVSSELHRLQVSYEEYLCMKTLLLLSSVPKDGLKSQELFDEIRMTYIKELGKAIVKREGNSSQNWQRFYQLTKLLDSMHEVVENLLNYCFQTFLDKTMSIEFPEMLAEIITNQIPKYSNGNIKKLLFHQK
Protocol: Buffer solution is composed of 25 mM NaPO4, 20 mM NaMoO4, 10 mM KF and 10% glycerol (pH=7.3) and stored under 4° C. Stock solution is prepared with CHAPS and DTT and stored under −20° C. […] Add 2.5 μl/hole into 96-pore plate. Take out appropriate amount of buffer solution reserve into solution to make the final concentration of CHAPS and DDT to become 0.25 mM and 2 mM respectively. Add protease inhibitors (aprotinin and leupeptin) to make its final concentration to become 1 μg/μl, and place in an ice bath. […] On the next day, add 25 μl of hydroxyapatite suspension into each pore and mix with shaking. After incubating for 10 min, separate by centrifuge for 3 min at 2500 rpm. The precipitate is washed with 100 μl of buffer solution and separated by centrifuge twice. Add 150 μl of scintillation solution (from Perkin Elmer) into each pore, mix with shaking and count by MicroBeta counter.

For `CC#C[C@]1(O)CC[C@H]2[C@@H]3CCC4=CC(=O)CCC4=C3[C@@H](c3ccc(N(C)C4CCCCC4)cc3)C[C@@]21C` [Cymipristone, 11β-[4-(N-methyl-N-cyclohexylamino)phenyl]-17α-(1-propynyl)-17β-hydroxyl-4,9-estradiene-3-one], the IC50 (androgen receptor (AR)) was 69.6 ± 15.4 nM and the IC50 [1] was 0.45 ± 0.069 nM.

From patent US20090111781A1, “Use of Cymipristone Type Compounds in Aids Treatment” (SHANGHAI THREE-ALLIANCE BIOTECHNOLOGIES CO., LTD., priority 2005, published 2009)
